Consider 58 compounds from US10442763B2, “EBNA1 inhibitors and methods using same” (priority 2015, dated 2019).

The IC50 is the concentration that inhibits the measured activity by half. The low end stands for higher potency, the high end for lower potency.

SMILES strings stand for the structures.

The target in the experiment is T1, His-EBNA1 (DNA binding domain of EBNA1, amino acids 459-607) (Epstein-Barr virus, UniProt P03211).
T1 construct: made in house; host or cells: E. coli
T1 sequence (P03211 459-607): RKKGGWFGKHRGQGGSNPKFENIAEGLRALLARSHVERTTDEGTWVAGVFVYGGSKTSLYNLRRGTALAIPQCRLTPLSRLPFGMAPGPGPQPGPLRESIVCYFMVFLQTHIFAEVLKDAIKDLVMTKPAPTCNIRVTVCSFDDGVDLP
Nature of the experiment: Inhibition of 5'-biotin-oPL4624 binding to His-EBNA1 using Alpha Screen technology. The procedure:
Inhibition of 5′-Biotin-oPL4624 Binding to his-EBNA1 Using Alpha Screen Technology
Assays were performed using the DNA binding domain of EBNA1 (amino acids 459-607), which was His-tagged (His-EBNA1) and the self-complementary biotinylated (bt) oligonucleotide with the sequence 5′-bt-[…]-ATGCTACCC-3′ (bt-oPL4624; or 5′-bt-SEQ ID NO: 1). The protein was expressed in E. coli and purified according to Barwell, et al., 1995, J Biol Chem. 270:20556-9.). The bt-oPL4624 oligonucleotide was purchased from Integrated DNA Technologies, Inc (IDT). AlphaScreen donor, acceptor beads and white, opaque 384-well assay plates were purchased from PerkinElmer, Inc.
Assays contained 15 nM His-EBNA1, 0.2 nM bt-oPL4624, 5 μg/mL AlphaScreen streptavidin donor beads and nickel chelate acceptor beads, and a series of concentrations of test compound ranging from 3.2 nM to 100 μM in a total volume of 40 μL assay buffer (25 mM Tris, pH 7.2, 160 mM NaCl, 1 mM MgCl2). His-EBNA1 (30 nM) and bt-oPL4624 (0.4 nM) were preincubated with 10 μg/mL nickel chelate AlphaScreen acceptor bead, or 10 μg/mL streptavidin AlphaScreen donor bead, respectively, for 30 minutes at room temperature in assay buffer. Twenty microliters of His-EBNA1/acceptor bead mix and bt-oPL4624/donor bead mix were transferred to assay plates containing 0.4 μL of 1:3 serial dilutions of test compounds previously prepared in DMSO at concentrations ranging from 0.32 μM to 10 mM. Non-specific binding was determined with 5 μg/mL AlphaScreen acceptor bead in the absence of His-EBNA1. After 2 hr incubation at room temperature, the AlphaScreen signal was measured on the Envision plate reader (PerkinElmer, Inc.) at 680 nm excitation and 570 nm emission. Inhibition values at each concentration of test compound were determined by setting 100% equal to raw data values in the absence of EBNA1 and 0% equal to the raw data values in the presence of EBNA1. Nonlinear regression fits of the inhibition values to a one-site dose-response equation were performed using GraphPad Prism.
(In general: Bead proximity is the source of the signal in Alpha formats.)
For `O=C(O)c1cccc(C#Cc2ccc(CN3CCCC(C(F)(F)F)C3)cc2)c1-c1ccc2cc[nH]c2c1` (stereo not shown) [Entry 162], the IC50 was 1 to 10 µM.
In the case of `Cc1nc2cc(-c3c(C#Cc4ccccc4)cccc3C(=O)O)ccc2s1` [Entry 112], the IC50 is 10 to 100 µM.
Compound `CCC(=O)N1CCc2ccc(C#Cc3cccc(C(=O)O)c3-c3ccc4cc[nH]c4c3)cc2C1` [Entry 75] gave an IC50 of 10 to 100 µM.
Regarding `CN1CCN(Cc2ccc(C#Cc3cccc(C(=O)O)c3-c3ccc4cc[nH]c4c3)cc2)CC1` [Entry 147], the IC50 fell in the range of 10 to 100 µM.
The result for `O=C(O)c1cccc(C#Cc2ccc3cc(CN4CCOCC4)[nH]c3c2)c1-c1ccc2cc[nH]c2c1` [Entry 33] reads 10 to 100 µM.
Compound `O=C(O)c1cccc(C#Cc2ccc(CN3CCN(S(=O)(=O)C4CC4)CC3)cc2)c1-c1ccc2cc[nH]c2c1` [Entry 190] registered a half-inhibitory concentration (IC50) of 10 to 100 µM.
The same measure for `O=C(O)c1cccc(C#Cc2cc3ccn(CC4CCOCC4)c3cc2F)c1-c1ccc2cc[nH]c2c1` [Entry 35]: 1 to 10 µM; for `O=C(O)c1cccc(C#Cc2ccc3c(ccn3CCN3CCOCC3)c2)c1-c1ccc2cc[nH]c2c1` [Entry 13]: 10 to 100 µM; for `COc1cc(C#Cc2cccc(C(=O)O)c2-c2ccc3cc[nH]c3c2)ccc1CN1CCOCC1` [Entry 45]: 10 to 100 µM.
The result for `NC(=O)c1ccc(OCc2ccc(C#Cc3cccc(C(=O)O)c3-c3ccc4cc[nH]c4c3)cc2)cc1` [Entry 86] reads 1 to 10 µM; that for `CN(C)CCCn1ccc2cc(C#Cc3cccc(C(=O)O)c3-c3ccc4cc[nH]c4c3)cnc21` [Entry 5], 10 to 100 µM; that for `O=C(O)c1cccc(C#Cc2ccc(COc3ccccc3C(F)(F)F)cc2)c1-c1ccc2cc[nH]c2c1` [Entry 93], 1 to 10 µM.
Regarding `O=C(O)c1cccc(C#Cc2ccc3ccn(CCCN4CCS(=O)(=O)CC4)c3c2)c1-c1ccc2cc[nH]c2c1` [Entry 25], the IC50 lay in the range of 1 to 10 µM.
The same measure for `CS(=O)(=O)c1cccc(OCc2ccc(C#Cc3cccc(C(=O)O)c3-c3ccc4cc[nH]c4c3)cc2)c1` [Entry 98]: 1 to 10 µM; for `O=C(O)c1cccc(C#Cc2ccc(OC3CCS(=O)(=O)CC3)cc2)c1-c1ccc2cc[nH]c2c1` [Entry 144]: 10 to 100 µM.
The result for `COC1CCN(Cc2ccc(C#Cc3cccc(C(=O)O)c3-c3ccc4cc[nH]c4c3)cc2)CC1` [Entry 155] reads 10 to 100 µM; that for `O=C(O)c1cccc(C#Cc2ccc(C(=O)N3CCC(N4CCOCC4)CC3)c(O)c2)c1-c1ccc2cc[nH]c2c1` [Entry 50], 1 to 10 µM.
In the case of `O=C(O)c1cccc(C#Cc2ccc(CN3CCC(CO)CC3)cc2)c1-c1ccc2cc[nH]c2c1` [Entry 151], the IC50 lay within 10 to 100 µM.
The same measure for `O=C1CCC(NC(=O)c2ccc(C#Cc3cccc(C(=O)O)c3-c3ccc4cc[nH]c4c3)cc2)CC1` [Entry 199]: less than 1 µM; for `O=C(O)c1cccc(C#Cc2ccc3c(CN4CCOCC4)c[nH]c3c2)c1-c1ccc2cc[nH]c2c1` [Entry 30]: 10 to 100 µM; for `CN1CCN(C(=O)c2ccc(C#Cc3cccc(C(=O)O)c3-c3ccc4cc[nH]c4c3)cc2)CC1` [Entry 202]: 10 to 100 µM.
In turn, `O=C(O)c1cccc(C#Cc2cnc3c(ccn3CC3CCS(=O)(=O)CC3)c2)c1-c1ccc2cc[nH]c2c1` [Entry 21] displayed an IC50 of 1 to 10 µM.
As for `O=C(O)c1cccc(C#Cc2ccc(COc3ccccc3F)cc2)c1-c1ccc2cc[nH]c2c1` [Entry 89], the half-maximal inhibitory concentration (IC50) lay within 1 to 10 µM.
In the case of `COc1cc(C#Cc2cccc(C(=O)O)c2-c2ccc3cc[nH]c3c2)ccc1CN1CCC(F)(F)CC1` [Entry 48], the IC50 is 1 to 10 µM.
In turn, `CS(=O)(=O)N1CC(N2CCc3cc(C#Cc4cccc(C(=O)O)c4-c4ccc5cc[nH]c5c4)ccc3C2)C1` [Entry 60] came in with an IC50 of 10 to 100 µM.
The same measure for `CC(=O)N1CCC(Cc2ccc(C#Cc3cccc(C(=O)O)c3-c3ccc4cc[nH]c4c3)cc2)CC1` [Entry 55]: 1 to 10 µM.
The result for `O=C(O)c1cccc(C#Cc2ccc(OC3CCOCC3)cc2)c1-c1cnc2[nH]ccc2c1` [Entry 142] reads 10 to 100 µM.
The result for `CS(=O)(=O)N1CCC(CN2CCc3cc(C#Cc4cccc(C(=O)O)c4-c4ccc5cc[nH]c5c4)ccc3C2)CC1` [Entry 59] reads 10 to 100 µM; that for `Nc1cc(-c2ccc(C#Cc3cccc(C(=O)O)c3-c3ccc4cc[nH]c4c3)cc2)[nH]n1` [Entry 128], 1 to 10 µM; that for `O=C(O)c1cccc(C#Cc2ccc(CN3CCCC(F)(F)C3)cc2)c1-c1ccc2cc[nH]c2c1` [Entry 159], 1 to 10 µM.
Consider `O=C(O)c1cccc(C#Cc2ccc3nc(C(F)(F)F)[nH]c(=O)c3c2)c1-c1ccc2cc[nH]c2c1` [Entry 135], for which the IC50 was in the range of 1 to 10 µM.
In turn, `O=C(O)c1cccc(C#Cc2ccc(OC3CC[S+]([O-])CC3)cc2)c1-c1ccc2cc[nH]c2c1` (stereo not shown) [Entry 29] had an IC50 of 10 to 100 µM.
The same measure for `Nc1nnc(-c2ccc(C#Cc3cccc(C(=O)O)c3-c3ccc4cc[nH]c4c3)cc2)s1` [Entry 127]: 1 to 10 µM; for `O=C(O)c1cccc(C#Cc2ccc(F)cc2)c1-c1cnc2[nH]ccc2c1` [Entry 140]: 10 to 100 µM.
The compound `O=C(O)c1cccc(C#Cc2ccc(-c3ccc(=O)[nH]n3)cc2)c1-c1ccc2cc[nH]c2c1` [Entry 44] returned an IC50 of 1 to 10 µM.
The result for `O=C(O)c1cccc(C#Cc2ccc(CN3CCN(S(=O)(=O)c4ccccc4)CC3)cc2)c1-c1ccc2cc[nH]c2c1` [Entry 168] reads 1 to 10 µM; that for `CN(C)CCCn1cc(C#Cc2cccc(C(=O)O)c2-c2ccc3cc[nH]c3c2)c2cccnc21` [Entry 11], 100 to 1000 µM.
The result for `O=C(O)c1cccc(C#Cc2cn(CCCN3CCOCC3)c3ncccc23)c1-c1ccc2cc[nH]c2c1` [Entry 7] reads 10 to 100 µM; that for `O=C(O)c1cccc(C#Cc2ccc(CN3CCOCC3)cc2)c1-c1ccc2cc[nH]c2c1` [Entry 145], 1 to 10 µM; that for `O=C(O)c1cccc(C#Cc2ccc(CN3CC(O)C3)cc2)c1-c1ccc2cc[nH]c2c1` [Entry 153], 10 to 100 µM.
The same measure for `CS(=O)(=O)N1CC2(CCN(Cc3ccc(C#Cc4cccc(C(=O)O)c4-c4ccc5cc[nH]c5c4)cc3)CC2)C1` [Entry 188]: 10 to 100 µM.
Turning to `CS(=O)(=O)N1CCC2(CC1)CN(Cc1ccc(C#Cc3cccc(C(=O)O)c3-c3ccc4cc[nH]c4c3)cc1)C2` [Entry 192], the IC50 lay within 10 to 100 µM.
The same measure for `O=C(O)c1cccc(C#Cc2cnc3c(ccn3CCCN3CCOCC3)c2)c1-c1ccc2cc[nH]c2c1` [Entry 6]: 1 to 10 µM; for `O=C(O)c1cccc(C#Cc2ccc3ccn(CCCN4CCOCC4)c3c2)c1-c1ccc2cc[nH]c2c1` [Entry 15]: 10 to 100 µM.
The same measure for `CC(C)S(=O)(=O)N1CCC(Cc2ccc(C#Cc3cccc(C(=O)O)c3-c3ccc4cc[nH]c4c3)cc2)CC1` [Entry 54]: 1 to 10 µM.
The result for `O=C(O)c1cccc(C#Cc2ccc(CN3CCS(=O)(=O)CC3)cc2)c1-c1ccc2cc[nH]c2c1` [Entry 148] reads 1 to 10 µM; that for `O=C(O)c1cccc(C#Cc2ccccc2)c1-c1ccc2cc[nH]c2c1F` [Entry 109], 10 to 100 µM; that for `O=C(O)c1cccc(C#Cc2ccc3c(ccn3CCCN3CCS(=O)(=O)CC3)c2)c1-c1ccc2cc[nH]c2c1` [Entry 24], 10 to 100 µM.
In the case of `O=C(O)c1cccc(C#Cc2ccc(CN3CCC(CCO)CC3)cc2)c1-c1ccc2cc[nH]c2c1` [Entry 150], the IC50 was in the range of 1 to 10 µM.
The same measure for `CS(=O)(=O)N1CCC(Cc2ccc(C#Cc3cccc(C(=O)O)c3-c3ccc4cc[nH]c4c3)cc2)CC1` [Entry 52]: 1 to 10 µM; for `Nc1nc2c(s1)C[C@H](NC(=O)c1ccc(C#Cc3cccc(C(=O)O)c3-c3ccc4cc[nH]c4c3)cc1)CC2` [Entry 201]: 1 to 10 µM.
The same measure for `O=C(O)c1cccc(C#Cc2cnc3c(ccn3CCN3CCS(=O)(=O)CC3)c2)c1-c1ccc2cc[nH]c2c1` [Entry 12]: 10 to 100 µM; for `CCC(=O)N1CCc2cc(C#Cc3cccc(C(=O)O)c3-c3ccc4cc[nH]c4c3)ccc2C1` [Entry 79]: 1 to 10 µM.
The result for `O=C(O)c1cccc(C#Cc2ccccc2)c1-c1cc2cc[nH]c2cc1F` [Entry 114] reads 10 to 100 µM; that for `O=C(O)c1cccc(C#Cc2cnc3c(ccn3CCN3CCOCC3)c2)c1-c1ccc2cc[nH]c2c1` [Entry 8], 1 to 10 µM; that for `O=C(O)c1cccc(C#Cc2ccc(CC3CCN(S(=O)(=O)C(F)(F)F)CC3)cc2)c1-c1ccc2cc[nH]c2c1` [Entry 53], 1 to 10 µM.
`O=C(O)c1cccc(C#Cc2ccc(CNC3CCS(=O)(=O)CC3)cc2)c1-c1ccc2cc[nH]c2c1` [Entry 169] had an IC50 of 10 to 100 µM.
`CC(C)OCc1ccc(C#Cc2cccc(C(=O)O)c2-c2ccc3cc[nH]c3c2)cc1` [Entry 28]: the IC50 lay in the range of 1 to 10 µM.
